Measurements reported in PubChem BioAssay (NCI).
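Cells were grown in 96-well plates and exposed to each compound for 48 hours at five concentrations; endpoints were interpolated linearly between bracketing concentrations, or set to the highest concentration if not reached. TGI: total growth inhibition.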

Legend:
Experiment in all cases: DTP human tumour cell line panel, 48 h
[1] = test system: SK-MEL-28 melanoma
[2] = test system: UACC-257 melanoma
[3] = test system: SK-OV-3 ovarian
[4] = test system: OVCAR-8 ovarian
[5] = test system: OVCAR-4 ovarian
[6] = test system: CCRF-CEM leukemia
[7] = test system: UO-31 renal
[8] = test system: LXFL 529 NSCLC
[9] = test system: EKVX NSCLC
[10] = test system: CAKI-1 renal
[11] = test system: SW-620 colon
[12] = test system: SR leukemia
[13] = test system: SK-MEL-2 melanoma
[14] = test system: SN12C renal
[15] = test system: HL-60(TB) leukemia
[16] = test system: TK-10 renal
[17] = test system: RPMI-8226 leukemia
[18] = test system: HCC-2998 colon
[19] = test system: MOLT-4 leukemia
[20] = test system: NCI-H23 lung
[21] = test system: SK-MEL-5 melanoma
[22] = test system: A498 renal
[23] = test system: M14 melanoma
[24] = test system: SF-268 CNS
[25] = test system: HOP-92 NSCLC
[26] = test system: SNB-75 CNS
[27] = test system: 786-0 renal
[28] = test system: UACC-62 melanoma
[29] = test system: DMS 114 small cell lung
[30] = test system: ACHN renal
[31] = test system: SNB-19 CNS
[32] = test system: HOP-62 NSCLC
[33] = test system: DMS 273 small cell lung
[34] = test system: K-562 leukemia
[35] = test system: MALME-3M melanoma
[36] = test system: XF 498 CNS
[37] = test system: COLO 205 colon
[38] = test system: M19-MEL melanoma
[39] = test system: NCI-H522 lung
[40] = test system: SNB-78 CNS
[41] = test system: LOX IMVI melanoma
[42] = test system: SF-539 CNS
[43] = test system: HCT-15 colon
[44] = test system: OVCAR-3 ovarian
[45] = test system: DLD-1 colon
[46] = test system: KM20L2 colon
[47] = test system: U251 CNS
[48] = test system: A549 NSCLC
[49] = test system: HT29 colon
[50] = test system: OVCAR-5 ovarian
[51] = test system: HCT-116 colon
[52] = test system: KM12 colon
[53] = test system: NCI-H226 lung
[54] = test system: RXF 393 renal
[55] = test system: NCI-H460 lung
[56] = test system: HOP-18 NSCLC
[57] = test system: SF-295 CNS
[58] = test system: IGROV1 ovarian

Which results are given for `CN(C)N=Nc1ccc(C(N)=O)cc1`?
TGI [1]: > 100 µM; TGI [2]: > 100 µM; TGI [3]: > 100 µM; TGI [4]: > 100 µM; TGI [5]: > 100 µM; TGI [6]: > 100 µM; TGI [7]: > 100 µM; TGI [8]: > 100 µM; TGI [9]: > 100 µM; TGI [10]: > 100 µM; TGI [11]: > 100 µM; TGI [12]: > 100 µM; TGI [13]: > 100 µM; TGI [14]: > 100 µM; TGI [15]: > 100 µM; TGI [16]: > 100 µM; TGI [17]: > 100 µM; TGI [18]: > 100 µM; TGI [19]: > 100 µM; TGI [20]: > 100 µM; TGI [21]: > 100 µM; TGI [22]: > 100 µM; TGI [23]: > 100 µM; TGI [24]: > 100 µM; TGI [25]: > 100 µM; TGI [26]: > 100 µM; TGI [27]: > 100 µM; TGI [28]: > 100 µM; TGI [29]: > 100 µM; TGI [30]: > 100 µM; TGI [31]: > 100 µM; TGI [32]: > 100 µM; TGI [33]: > 100 µM; TGI [34]: > 100 µM; TGI [35]: > 100 µM; TGI [36]: > 100 µM; TGI [37]: > 100 µM; TGI [38]: > 100 µM; TGI [39]: > 100 µM; TGI [40]: > 100 µM; TGI [41]: > 100 µM; TGI [42]: > 100 µM; TGI [43]: > 100 µM; TGI [44]: > 100 µM; TGI [45]: > 100 µM; TGI [46]: > 100 µM; TGI [47]: > 100 µM; TGI [48]: > 100 µM; TGI [49]: > 100 µM; TGI [50]: > 100 µM; TGI [51]: > 100 µM; TGI [52]: > 100 µM; TGI [53]: > 100 µM; TGI [54]: > 100 µM; TGI [55]: > 100 µM; TGI [56]: > 100 µM; TGI [57]: > 100 µM; TGI [58]: > 100 µM

How did the TGI [1] turn out when `Cc1c(C(=O)C/C(=N/NC(=O)c2ccccc2O)C(=O)Nc2ccccc2C(C)C)[n+](=O)c2ccccc2n1[O-]` was run?
Its TGI is greater than 100 µM.

And the TGI [2]?
The TGI was greater than 100 µM.

And the TGI [3]?
Its TGI is greater than 100 µM.

What about the TGI [4] of the same molecule?
Its TGI is greater than 100 µM.

What about the TGI [5] of the same molecule?
The TGI was greater than 100 µM.

And the TGI [6]?
Its TGI is 28.8 µM.

And the TGI [8]?
Its TGI is greater than 100 µM.

What about the TGI [9] of the same molecule?
Its TGI is greater than 100 µM.

What about the TGI [10] of the same molecule?
The TGI was greater than 100 µM.

And the TGI [11]?
Its TGI is greater than 100 µM.

What about the TGI [13] of the same molecule?
Its TGI is 8.81 µM.

And the TGI [14]?
Its TGI is greater than 100 µM.

And the TGI [15]?
The TGI was 38.3 µM.

And the TGI [16]?
Its TGI is greater than 100 µM.

What about the TGI [18] of the same molecule?
Its TGI is greater than 100 µM.

And the TGI [19]?
Its TGI is 21.9 µM.

And the TGI [20]?
The TGI was 52.8 µM.

And the TGI [21]?
The TGI was greater than 100 µM.

What about the TGI [22] of the same molecule?
The TGI was greater than 100 µM.

What about the TGI [23] of the same molecule?
Its TGI is greater than 100 µM.

What about the TGI [24] of the same molecule?
Its TGI is greater than 100 µM.

And the TGI [26]?
The TGI was greater than 100 µM.

What about the TGI [27] of the same molecule?
Its TGI is greater than 100 µM.

What about the TGI [28] of the same molecule?
The TGI was 77.7 µM.

What about the TGI [29] of the same molecule?
Its TGI is 60.8 µM.

And the TGI [30]?
Its TGI is greater than 100 µM.

What about the TGI [31] of the same molecule?
Its TGI is greater than 100 µM.

What about the TGI [32] of the same molecule?
Its TGI is greater than 100 µM.

And the TGI [33]?
The TGI was greater than 100 µM.

And the TGI [34]?
The TGI was greater than 100 µM.

What about the TGI [35] of the same molecule?
Its TGI is greater than 100 µM.

And the TGI [36]?
Its TGI is greater than 100 µM.

What about the TGI [37] of the same molecule?
The TGI was greater than 100 µM.

What about the TGI [38] of the same molecule?
Its TGI is greater than 100 µM.

And the TGI [39]?
Its TGI is 65.8 µM.

What about the TGI [40] of the same molecule?
Its TGI is greater than 100 µM.

And the TGI [41]?
Its TGI is greater than 100 µM.

And the TGI [42]?
Its TGI is greater than 100 µM.

And the TGI [43]?
The TGI was greater than 100 µM.

What about the TGI [44] of the same molecule?
Its TGI is greater than 100 µM.

What about the TGI [45] of the same molecule?
The TGI was greater than 100 µM.

What about the TGI [46] of the same molecule?
The TGI was greater than 100 µM.

And the TGI [47]?
Its TGI is greater than 100 µM.

What about the TGI [48] of the same molecule?
Its TGI is greater than 100 µM.

And the TGI [49]?
Its TGI is greater than 100 µM.

What about the TGI [50] of the same molecule?
Its TGI is greater than 100 µM.

What about the TGI [51] of the same molecule?
Its TGI is greater than 100 µM.

What about the TGI [52] of the same molecule?
Its TGI is greater than 100 µM.

And the TGI [53]?
The TGI was greater than 100 µM.

What about the TGI [54] of the same molecule?
Its TGI is greater than 100 µM.

And the TGI [55]?
Its TGI is greater than 100 µM.

And the TGI [56]?
Its TGI is greater than 100 µM.

And the TGI [57]?
The TGI was greater than 100 µM.

What about the TGI [58] of the same molecule?
Its TGI is greater than 100 µM.
